Laboratory results published in patent publication US8975289B2, “Benzyl aralkyl ether compounds, method for preparing same, intermediate compounds, use of said compounds, method for treatment and/or prevention, pharmaceutical composition and medicament containing same” (priority 2009, dated 2015).
≈ marks a conversion by molar mass, not a printed value. Where two headings read alike, the source gives them in different places.

What was measured:
Format in all cases: cell-based
Aspergillus Niger 16404 = test: Broth microdilution MIC (M38-A), filamentous fungi, strain I; conditions: for MIC: Aspergillus niger; for Resistance or sensitivity of the strain to the agent (in words): clinical isolate strain I
Description: (§1) For the experiments of the present invention, the dermatophyte-type fungi strains that were obtained from clinical isolates and laboratory isolates, as described in Table 2 as follows, were used:
(§2) The fungal strains were grown on agar potato medium in a sloping chute at a temperature of 30° C. for a period of 7 to 15 days.
(§3) For the experiments, the compound 1-[2-(2,4-dichlorophenyl)-2-{[4-(trifluoromethyl)benzyl]oxy}ethyl]-1H-imidazole (BL-123) in the form of its nitrate salt and miconazole nitrate were used. Both compounds were dissolved in dimethyl sulfoxide (DMSO) to match the final concentration of the compound equal to or less than 1%.
(§4) The methodology used to test the sensitivity of the agent was of broth microdilution according to the method described in Standard M38-A (Reference method for broth dilution tests for determining the sensitivity to antifungal therapy for filamentous fungi; NCCLS, volume 22 No. 16, USA, 2008) as follows.
(§5) The fungus was cultivated pursuant to item 4.1. To the tubes wherein the fungi were grown, 5 mL of saline solution were added in order to extract the fungi from the agar surface. Then, this homogeneous suspension was transferred to a new tube and the colony-forming units (CFUs) were quantified according to counting methods: (i) in Sabouraud dextrose agar plates and (ii) in a Neubauer chamber.
(§6) Then, the fungi strains listed in Table 2 were inoculated in duplicate in a 96-well plate. There were used inocula of from 2 to 6×10^3 CFU/mL of fungi, per well, in a total volume of 0.2 mL of RPMI-1640 (containing L-glutamine and without bicarbonate) buffered at pH 7.0 with MOPS (acid 3-(N-morpholine) 15 propanesulfonic). The procedure was performed in a laminar flow.
(§7) The compounds to be tested were added in a serial dilution, in duplicate, in final concentrations of 16 μg/mL; 8 μg/mL; 4 μg/mL; 2 μg/mL; 1 μg/mL; 0.5 μg/mL; 0.25 μg/mL; 0.125 μg/mL; 0.0625 μg/mL; or 0.03125 μg/mL in culture medium present in each well.
(§8) The incubation of fungi with these compounds was performed by 4, 5, 6 and 7 days at temperatures from 30 to 35° C.
(§9) The fungi quantification was carried out with the growth of fungi in each well being compared to the growth occurred in the negative control by means of a mirror reading. The negative control is represented by fungi grown in culture medium in the absence of the tested compounds. The methodology of this comparison is the numerical rating to which the microdilution well was submitted. In this methodology, value 4 corresponds to no reduction of growth, value 3 corresponds to a slight reduction in growth or approximately 75% of the growth of the negative control, value 2 corresponds to a standout reduction in growth or approximately 50% of growth of negative control; value 1 corresponds to a slight growth or approximately 25% of the growth of the negative control, and value 0 corresponds to optically clear or absence of growth.
(§10) In this experiment, the minimum inhibitory concentration (MIC) is considered as the lowest concentration of the agent capable of inhibiting at least 80% of the growth of colony-forming units (CFUs).

Microsporum gypseum 24 = test: Broth microdilution MIC (M38-A), filamentous fungi, strain III; conditions: Nannizzia gypsea
Description: as §1, §2, §3, §4, §5, §6, §7, §8
(§11) The fungi quantification was carried out with the growth of fungi in each well being compared to the growth occurred in the negative control by means of a mirror reading. The negative control is represented by fungi grown in culture medium in the absence of the tested compounds. The methodology of this comparison is the numerical rating to which the microdilution well was submitted. […]

[1] = test system: Trichophyton verrucosum 381; test: Broth microdilution MIC (M38-A), filamentous fungi, strain IV
Description: as §1, §2, §3, §4, §5, §6, §7, §8, §11

[2] = test system: Trichophyton rubrum 28188; test: Broth microdilution MIC (M38-A), filamentous fungi, strain V
Description: as §1, §2, §3, §4, §5, §6, §7, §8, §11

[3] = test system: Trichophyton verrucosum 381; test: Broth microdilution MIC (M38-A), filamentous fungi, strain VII; conditions: for MIC: Trichophyton verrucosum; for Resistance or sensitivity of the strain to the agent (in words): clinical isolate strain VII
Description: as §1, §2, §3, §4, §5, §6, §7, §8, §9, §10

Trichophyton rubrum 455 = test: Broth microdilution MIC (M38-A), filamentous fungi, strain VIII; conditions: for MIC: Trichophyton rubrum; for Resistance or sensitivity of the strain to the agent (in words): clinical isolate strain VIII
Description: as §1, §2, §3, §4, §5, §6, §7, §8, §9, §10

[4] = test system: filamentous fungi strains of Table 2 (n = 13); test: MIC50, MIC90 and variation of MICs over the 13 strains of Table 2; conditions: for MIC50 / MIC90: n = 13 strains; for MIC50: read-out: MIC50 (minimum inhibitory concentration to inhibit 50% of strains), Average MIC; for MIC90: read-out: MIC90 (minimum inhibitory concentration to inhibit 90% of strains), Average MIC
Description: as §1, §2, §3, §4, §5, §6, §7, §8, §9, §10

[5] = test system: Candida parapsilosis 22019; test: Broth microdilution MIC (M27-A2), yeast, strain XV; conditions: strain XV 22019, 48 hours incubation; read-out: MIC
Description: For the experiments of the present invention (i) yeast strains obtained from clinical isolates and laboratory isolates, and (ii) bacterial strains obtained from laboratory isolates were used, as described in Table 5 as follows. The yeast strains were grown in culture medium Sabouraud Dextrose Agar maintained at a temperature of 35° C. for 48 hours. […] The compounds were dissolved in dimethyl sulfoxide (DMSO) to match the final concentration of the compound equal to or less than 1%. The methodology used to test the sensitivity of the agent was broth microdilution according to the method described in Standard M27-A2 (Reference method for broth dilution tests to determine the sensitivity of yeasts to antifungal therapy-second edition, NCCLS, volume 22 number 15, USA, 2002) as follows. […] Then the suspensions were diluted in culture medium RPMI-1640 (buffered with MOPS 0.165 mol/l) at a final concentration of 50 to 2500 CFU/mL. The diluted suspensions were inoculated in duplicate in a 96-well plate. The procedure was performed in a laminar flow. […] The incubation of fungi with these compounds was carried out for 48 hours at temperature of 30 to 35° C. […] We have agreed in this experiment that the turbid medium is the result of microbial growth and the presence of deposit and a clear medium represents the absence of microbial growth. The minimum inhibitory concentration (MIC) was defined as the lowest tested drug concentration that prevents any degree of […] growth.

[6] = NIGER16404, 96 h, strain I 16404, reading Day 4, average of four experiments, >=80% growth inhibition
[7] = NIGER16404, 168 h, strain I 16404, reading Day 7, average of four experiments
[8] = 96 h, strain III 24, reading Day 4, average of four experiments
[9] = 168 h, strain III 24, reading Day 7, average of four experiments
[10] = 96 h, strain IV 381, reading Day 4, average of four experiments
[11] = 168 h, strain IV 381, reading Day 7, average of four experiments
[12] = 96 h, strain V 28188, reading Day 4, average of four experiments
[13] = 168 h, strain V 28188, reading Day 7, average of four experiments
[14] = 96 h, strain VII 381, reading Day 4, average of four experiments
[15] = 168 h, strain VII 381, reading Day 7, average of four experiments
[16] = 96 h, strain VIII 455, reading Day 4, average of four experiments
[17] = 168 h, strain VIII 455, reading Day 7, average of four experiments

SMILES | MIC (Aspergillus Niger 16404; [6]) | MIC (Aspergillus Niger 16404; [7]) | Resistance or sensitivity of the strain to the agent (in words) (Aspergillus Niger 16404) | MIC (Microsporum gypseum 24; [8]) | MIC (Microsporum gypseum 24; [9]) | MIC [1, 10] | MIC [1, 11] | MIC [2, 12] | MIC [2, 13] | MIC [3, 14] | MIC [3, 15] | Resistance or sensitivity of the strain to the agent (in words) [3] | MIC (Trichophyton rubrum 455; [16]) | MIC (Trichophyton rubrum 455; [17]) | Resistance or sensitivity of the strain to the agent (in words) (Trichophyton rubrum 455) | MIC50 ([4]; 96 h, Day 4) | MIC90 ([4]; 96 h, Day 4) | MIC50 ([4]; 168 h, Day 7) | MIC90 ([4]; 168 h, Day 7) | MIC [5] | further results
FC(F)(F)c1ccc(COC(Cn2ccnc2)c2ccc(Cl)cc2Cl)cc1 (centres unmarked) [BL-123, 1-[2-(2,4-dichlorophenyl)-2-{[4-(trifluoromethyl)benzyl]oxy}ethyl]-1H-imidazole] | 8 µg/mL (≈ 19.3 µM) | 8 µg/mL (≈ 19.3 µM) | sensitive | 0.25 µg/mL (≈ 0.602 µM) | 0.25 µg/mL (≈ 0.602 µM) | > 16 µg/mL | > 16 µg/mL | 0.03 µg/mL (≈ 0.0722 µM) | 0.03 µg/mL (≈ 0.0722 µM) | 4 µg/mL (≈ 9.63 µM) | > 16 µg/mL | sensitive | 4 µg/mL (≈ 9.63 µM) | 8 µg/mL (≈ 19.3 µM) | sensitive | 0.25 µg/mL (≈ 0.602 µM) | 4 µg/mL (≈ 9.63 µM) | 0.5 µg/mL (≈ 1.2 µM) | 8 µg/mL (≈ 19.3 µM) | 4 µg/mL (≈ 9.63 µM) | Inhibitory effect on growth (in words) ([4]; 13 different strains, seven different species): exerts an inhibitory effect on growth
Clc1ccc(COC(Cn2ccnc2)c2ccc(Cl)cc2Cl)c(Cl)c1 (centres unmarked) [Miconazole, miconazole, reference compound] | > 16 µg/mL | > 16 µg/mL | resistant | 0.05 µg/mL (≈ 0.12 µM) | 0.05 µg/mL (≈ 0.12 µM) | > 16 µg/mL | > 16 µg/mL | 0.03 µg/mL (≈ 0.0721 µM) | 0.06 µg/mL (≈ 0.144 µM) | > 16 µg/mL | > 16 µg/mL | resistant | > 16 µg/mL | > 16 µg/mL | resistant | 0.5 µg/mL (≈ 1.2 µM) | > 16 µg/mL | 1 µg/mL (≈ 2.4 µM) | > 16 µg/mL | 2 µg/mL (≈ 4.81 µM) | 
